Data on two molecules can be found in patent publication US20250120944A1, “ANTIBACTERIAL COMPOSITION” (SEOUL NATIONAL UNIVERSITY R&DB FOUNDATION, priority 2021, published 2025).

The test system of assay [1] is LC3. Description: immunoblotting of LC3 in S. typhimurium-infected J774A.1 cells treated with a lysosomal V-ATPase inhibitor. The following applies: 100 nM, 4 hours. Format: cell-based. Here is the method:
(§1) First, J774A.1 macrophages (Korean Cell Line Bank) were cultured in RPMI (Rosewell Park Memorial Institue) supplemented with 10% FBS and 100 units/mL penicillin/streptomycin, and HeLa cells were cultured in Dulbecco's Modified Eagle's Medium (DMEM; Gibco, 10566016) supplemented with 10% FBS and 100 units/mL penicillin/streptomycin. All cell lines were tested negative for mycoplasma using the MycoAlert detection kit (Lonza, LT07-118), and all culture plates and cell lines were maintained in a humidified incubator at 37° C. and 5% CO2.
Macrophage J774A.1 and HeLa cells were infected with Salmonella typhimurium, a Gram-negative bacterium, and the expression of LC3 was monitored through immunoblotting. Mouse monoclonal anti-[…] (Abcam, ab56416, 1: 100,000) was used for immunoblotting, rabbit polyclonal anti-LC3 (Sigma, L7543, 1:40,000) was used for immunoblotting, and anti-rabbit IgG-HRP (Cell Signaling, 7074, 1:10,000) and anti-mouse IgG-HRP (Cell Signaling, 7076, 1:1000) were used as secondary antibodies.
The J774A.1 cells of Experimental Example 1-1 were treated with bafilomycin A1 (100 nM), an inhibitor of lysosomal V-ATPase, for 4 hours, and immunoblotting was performed in the same manner as in Experimental Example 1-1. However, there was no difference in the degree of inhibition of LC3-I and LC-II expression even when treated with lysosomal V-ATPase inhibitor (FIG. 1E).
Background: A western blot detects proteins with antibodies after separation by electrophoresis.

Assay [2] concerns LC3. The assay can be described thus: immunoblotting of LC3 in J774A.1 and HeLa cells treated with LPS. The class given is cell-based. The following applies: 100 ng/mL, 6 hours. Here is the method:
as §1
[…] Mouse monoclonal anti-β62 (Abcam, ab56416, 1: 100,000) was used for immunoblotting, rabbit polyclonal anti-LC3 (Sigma, L7543, 1:40,000) was used for immunoblotting, and anti-rabbit IgG-HRP (Cell Signaling, 7074, 1:10,000) and anti-mouse IgG-HRP (Cell Signaling, 7076, 1:1000) were used as secondary antibodies.
In addition, in order to rule out the possibility that J774A.1 and HeLa cells lack the ability to induce autophagy in response to pathogen invasion, the J774A.1 and HeLa cells of Experimental Example 1-1 were treated with lipopolysaccharide (LPS) (100 ng/mL), a component of the outer membrane of Gram-negative bacteria, as a pathogen-associated molecular pattern (PAMP) for 6 hours, and immunoblotting was performed in the same manner as in Experimental Example 1-1.

In the case of `CO/C1=C\C(C)=C\[C@@H](C)[C@@H](O)[C@@H](C)C/C(C)=C/C=C/[C@H](OC)[C@@H]([C@@H](C)[C@@H](O)[C@H](C)[C@@]2(O)C[C@@H](O)[C@H](C)[C@@H](C(C)C)O2)OC1=O` [bafilomycin A1], in the assay with LC3 [1], the “degree of inhibition of LC3-I and LC-II expression” value was “no difference”. For the molecule lipopolysaccharide [LPS], in the assay with LC3 [2], the “lipidation of LC3 (LC3-II)” value was “strongly induced” and the “synthesis of LC3 (LC3-I)” value is “strongly induced”.
